From EP1169044B1, “USE OF FUCOSYLATED SIALYLATED N-ACETYL LACTOSAMINE CARBOHYDRATE STRUCTURES FOR INHIBITION OF BACTERIAL ADHERENCE” (Borén, Thomas, priority 1999, dated 2000)

Key:
[1] = system: strain CCUG 17874, the BabA2 mutant and the BabA1A2 mutant; test: thin-layer chromatogram binding assay (radiolabelled bacteria overlaid on separated glycosphingolipids); parameters: species or system Helicobacter pylori; settings: for binding to glycosphingolipids on thin-layer chromatograms (in words): CCUG 17874, babA2 mutant, babA1A2 mutant; for Binding obtained with strain CCUG 17874, the babA2 mutant and the babA1A2 mutant: glycosphingolipids on thin-layer chromatograms, autoradiogram
Method: (§1) The glycosphingolipids were separated and (A) visualised with anisaldehyde. Duplicate chromatograms were incubated with monoclonal (B) anti-sialyl-Lewis x, (C) anti-sialyl-Lewis a, and radiolabelled H. pylori (D) strain CCUG 17875, (E) the BabA1A2 mutant strain, and (F) strain CCUG 17874. Autoradiography was for 12 hr. The lanes contained: 1, Acid glycosphingolipids of calf brain, 40 µg; 2, Acid glycosphingolipids of human neutrophil granulocytes, 40 µg; 3, Acid glycosphingolipids of human neutrophil granulocytes after de-sialylation, 40 µg; 4, Acid glycosphingolipids of human gall bladder adenocarcinoma, 40 µg; 5, Acid glycosphingolipids of human gall bladder adenocarcinoma after de-sialylation, 40 µg; 6, NeuAcα3Galβ4(Fucα3)GlcNAcβ3Galβ4(Fucα3)GlcNAcβ3Galβ4Glcβ1Cer isolated from human gall bladder adenocarcinoma, 1 µg; 7, NeuAcα3Galβ3(Fucα4)GlcNAcβ3Galβ4Glcβ1-Cer (sialyl-Lewis a hexaglycosylceramide) isolated from human gall bladder adenocarcinoma, 4 µg; 8, NeuAcα3Galβ4(Fucα3)GlcNAcβ3Galβ4Glcβ1Cer (sialyl-Lewis x hexaglycosyl-ceramide), 4 µg; 9, Fucα2Galβ3(Fucα4)GlcNAcβ3Galβ4Glcβ1Cer (Lewis b-6 hexaglycosylceramide) of human small intestine, 4 µg.
(§2) Culture and ^35S-labelling of H. pylori was as outlined in (Ångström, J., Teneberg, S., Abul Milh, M,. Larsson, T., Leonardsson, I., Olsson, B.-M., Ölwegård Halvarsson, M., Danielsson, D., and Karlsson, K.-A. (1998). The lactosylceramide binding specificity of Helicobacter pylori. Glycobiology 8, 297-309.). Mixtures of glycosphingolipids (20-40 µg/lane) or pure compounds (0.002-4 µg/lane) were separated on aluminium-backed silica gel 60 HPTLC plates (Merck), using chloroform:methanol:water 60:35:8 (v/v/v) as solvent system. Chemical detection was done with anisaldehyde (Waldi, D. (1962) Sprühreagentien für die dünnschicht-chromatographie. In Dünnschicht-Chromatographie, E. Stahl ed. (Berlin: Springer-Verlag) pp. 496-51).
(§3) Binding of radiolabelled H. pylori to glycosphingolipids on thin-layer chromatograms was performed as described above (Ångström et al., 1998) using suspensions of bacteria diluted in phosphate-buffered saline (PBS), pH 7.3, to 1x10^8 CFU/ml. The specific activities of the suspensions were approximately 1 CPM per 100 H. pylori organisms. Binding of monoclonal antibodies was done as described (Magnani, J.L., Brockhaus, M., Smith, D.F., Ginsburg, V., Blaszczyk, M., Mitchell, K.F., Steplewski, Z., and Koprowski, H. (1981). A monosialoganglioside is a monoclonal antibody-defined antigen of colon-carcinoma. Science 212, 55-56). Anti-sialyl-Lewis x monoclonal antibodies (clone KM-93) were from Seikagaku Corp., Tokyo, Japan and anti-sialyl-Lewis a monoclonal antibodies (CA 19-9) from Signet Laboratories, Inc., Dedham, MA 02026, USA.
(§4) Screening of potential receptor structures unique for thebabA1/babA2-mutant was performed by adherence experiments to well-defined panels of MS-characterized glycolipids, from defined and unique sources and tissues. Binding of H. pylori and monoclonal antibodies to glycosphingo-lipids was evaluated using the thin-layer chromatogram binding assay (J. Ångström et al., Glycobiology 8, 297 (1998); J. M. McKibbin et al., J. Biol. Chem. 257,755 (1982)), i.e., glyco-lipids were separated on HPTLC-plates, and H. pylori CCUG 17875 wild type bacteria and the babA1/babA2-mutant were overlaid on the plates and binding of radio labelled bacterial cells was detected. (See Experimental procedures).

[2] = system: Helicobacter pylori strain CCUG 17875; test: as above; settings: glycosphingolipids on thin-layer chromatograms, autoradiogram
Method: as §1, §2, §3, §4

Substance	binding to glycosphingolipids on thin-layer chromatograms (in words) [1]	Binding obtained with strain CCUG 17874, the babA2 mutant and the babA1A2 mutant ([1]; Table 1)	Binding obtained with strain CCUG 17874, the babA2 mutant and the babA1A2 mutant ([1]; Table 2)	Binding obtained with strain CCUG 17875 ([2]; Table 1)	Binding obtained with strain CCUG 17875 ([2]; Table 2)	detection level ([1]; binding on thin-layer chromatogram)	amount required for binding ([1]; weak, occasionally observed binding on thin-layer chromatogram)
Fucα2Galβ3(Fucα4)GlcNAcβ3Galβ4Glcβ1Cer [Le^b-6]	did not recognize	- (- denotes no darkening even at 2 nmol)	- (– denotes no darkening even at 2 nmol)	+^3 (+ denotes a darkening at 2 nmol)	+3 (+3 denotes a significant darkening on the autoradiogram when 1 pmol of structure was applied on the thin-layer plate)	–	–
Galβ3GalNAcβ4(NeuAcα3)Galβ4Glcβ1Cer [GM1]	–	- (- denotes no darkening even at 2 nmol)	- (– denotes no darkening even at 2 nmol)	- (- denotes no darkening even at 2 nmol)	- (– denotes no darkening even at 2 nmol)	–	–
Galβ3GalNAcβ4(NeuAcα8NeuAcα3)Galβ4Glcβ1Cer [GD1b]	–	- (- denotes no darkening even at 2 nmol)	- (– denotes no darkening even at 2 nmol)	- (- denotes no darkening even at 2 nmol)	- (– denotes no darkening even at 2 nmol)	–	–
NeuAcα3Galβ3(Fucα4)GlcNAcβ3Galβ4Glcβ1Cer [S-Le^a]	almost no binding	–	- (– denotes no darkening even at 2 nmol)	–	- (– denotes no darkening even at 2 nmol)	–	–
NeuAcα3Galβ3GalNAcβ4(NeuAcα3)Galβ4Glcβ1Cer [GD1a]	–	- (- denotes no darkening even at 2 nmol)	- (– denotes no darkening even at 2 nmol)	- (- denotes no darkening even at 2 nmol)	- (– denotes no darkening even at 2 nmol)	–	–
NeuAcα3Galβ4(Fucα3)GlcNAcβ3Galβ4(Fucα3)GlcNAcβ3Galβ4Glcβ1Cer	–	+++ (+++ denotes a significant darkening on the autoradiogram when 1 pmol was applied on the thin-layer plate)	+3 (+3 denotes a significant darkening on the autoradiogram when 1 pmol of structure was applied on the thin-layer plate)	- (- denotes no darkening even at 2 nmol)	- (– denotes no darkening even at 2 nmol)	approximately 1 pmol	–
NeuAcα3Galβ4(Fucα3)GlcNAcβ3Galβ4Glcβ1Cer [S-Le^x]	weak binding	–	–	–	–	–	2 nmol
NeuAcα3Galβ4Glcβ1Cer [GM3]	–	- (- denotes no darkening even at 2 nmol)	- (– denotes no darkening even at 2 nmol)	- (- denotes no darkening even at 2 nmol)	- (– denotes no darkening even at 2 nmol)	–	–
